Results published in patent US9051310B2, “Nicotinamide derivative or salt thereof” (FUJIFILM Corporation, priority 2011, dated 2015).

Key:
[1] = target: T1, glutathione S-transferase (GST)-linked full-length human Syk protein (Homo sapiens, UniProt P43405); assay: Syk enzyme assay; format: biochemical; conditions: 0.83 nM Syk, time-resolved fluorescence; read-out: IC50 of Syk-inhibitory activity
T1 construct: glutathione S-transferase (GST)-linked full-length human Syk protein; purchased Carna Biosciences; host or cells: Baculovirus expression system
How it was run: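 Phosphotyrosine on a biotin-peptide substrate (0.5 μM) was read by time-resolved fluorescence at 615 and 665 nm with Eu-anti-pTyr antibody and APC-streptavidin after 1 h EDTA stop.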

[2] = tested on: THP-1 cells (TNFα secretion on human IgG-coated plate); assay: TNFα generation assay; format: cell-based; conditions: IFN-γ differentiated THP-1 cells, 7 hours, AlphaLISA, read-out: IC50 of TNFα generation inhibitory activity
How it was run: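 THP-1 cells were differentiated with 10 ng/ml IFN-γ for 2 days, then preincubated with compound for 30 min at room temperature. They were then plated at 5×10^4 cells/well on plates coated with human IgG (10 μg/ml). TNFα secreted over 7 h of culture was quantified by AlphaLISA.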

Row | IC50 [1] [nM] | IC50 [2] [nM] | Structure (SMILES)
1 | 10 to 50 | 130 to 200 | CCOC[C@@H](Nc1nc(Nc2cccc3c2cnn3CC)c(C(N)=O)cc1F)[C@H](C)N [Example 2-180, 6-(((2S,3S)-3-amino-1-ethoxybutan-2-yl)amino)-2-((1-ethyl-1H-indazol-4-yl)amino)-5-fluoronicotinamide]
2 | < 10 | 65 to 130 | CCOC[C@@H](Nc1nc(Nc2ccc3c(cnn3CC)c2)c(C(N)=O)cc1F)[C@H](C)N [Example 2-182, 6-(((2S,3S)-3-amino-1-ethoxybutan-2-yl)amino)-2-((1-ethyl-1H-indazol-5-yl)amino)-5-fluoronicotinamide]
3 | < 10 | 130 to 200 | CC(C)C[C@H](CN)Nc1nc(Nc2cc(F)c3c(c2)c(N(C)C)nn3C)c(C(N)=O)cc1F [Example 2-185, (R)-6-((1-amino-4-methylpentan-2-yl)amino)-2-((3-(dimethylamino)-7-fluoro-1-methyl-1H-indazol-5-yl)amino)-5-fluoronicotinamide]
4 | < 10 | 65 to 130 | CC[C@@H](Nc1nc(Nc2cc(F)c3c(c2)c(N(C)C)nn3C)c(C(N)=O)cc1F)[C@H](C)N [Example 2-186, 6-(((2S,3R)-2-aminopentan-3-yl)amino)-2-((3-(dimethylamino)-7-fluoro-1-methyl-1H-indazol-5-yl)amino)-5-fluoronicotinamide]
5 | < 10 | 65 to 130 | CCC[C@@H](Nc1nc(Nc2cc(F)c3c(c2)c(N(C)C)nn3C)c(C(N)=O)cc1F)[C@H](C)N [Example 2-187, 6-(((2S,3R)-2-aminohexan-3-yl)amino)-2-((3-(dimethylamino)-7-fluoro-1-methyl-1H-indazol-5-yl)amino)-5-fluoronicotinamide]
6 | < 10 | 65 to 130 | COC[C@@H](Nc1nc(Nc2ccc3c(c2)c(C)nn3C)c(C(N)=O)cc1F)[C@H](C)N [Example 2-196, 6-(((2S,3S)-3-amino-1-methoxybutan-2-yl)amino)-2-((1,3-dimethyl-1H-indazol-5-yl)amino)-5-fluoronicotinamide]
7 | < 10 | 65 to 130 | CCC[C@@H](Nc1nc(Nc2cnc(OCC)c(-n3ccnn3)c2)c(C(N)=O)cc1F)[C@H](C)N [Example 2-207, 6-(((2S,3R)-2-aminohexan-3-yl)amino)-2-((6-ethoxy-5-(1H-1,2,3-triazol-1-yl)pyridin-3-yl)amino)-5-fluoronicotinamide]
8 | < 10 | < 65 | Cc1nn(C)c2ccc(Nc3nc(N[C@@H]4CCOC[C@@H]4N)c(F)cc3C(N)=O)cc12 [Example 2-208, 6-(((3R,4R)-3-aminotetrahydro-2H-pyran-4-yl)amino)-2-((1,3-dimethyl-1H-indazol-5-yl)amino)-5-fluoronicotinamide]
9 | < 10 | 65 to 130 | Cn1nc(F)c2cc(Nc3nc(N[C@@H]4CCOC[C@@H]4N)c(F)cc3C(N)=O)ccc21 [Example 2-209, 6-(((3R,4R)-3-aminotetrahydro-2H-pyran-4-yl)amino)-5-fluoro-2-((3-fluoro-1-methyl-1H-indazol-5-yl)amino)nicotinamide]
10 | < 10 | < 65 | COc1nn(C)c2ccc(Nc3nc(N[C@@H]4CCOC[C@@H]4N)c(F)cc3C(N)=O)cc12 [Example 2-210, 6-(((3R,4R)-3-aminotetrahydro-2H-pyran-4-yl)amino)-5-fluoro-2-((3-methoxy-1-methyl-1H-indazol-5-yl)amino)nicotinamide]
11 | < 10 | 65 to 130 | COc1nn(C)c2c(F)cc(Nc3nc(N[C@@H]4CCOC[C@@H]4N)c(F)cc3C(N)=O)cc12 [Example 2-211, 6-(((3R,4R)-3-aminotetrahydro-2H-pyran-4-yl)amino)-5-fluoro-2-((7-fluoro-3-methoxy-1-methyl-1H-indazol-5-yl)amino)nicotinamide]
12 | 10 to 50 | 130 to 200 | COc1ncc(Nc2nc(N[C@@H]3CCOC[C@@H]3N)c(F)cc2C(N)=O)cc1-n1ccnn1 [Example 2-215, 6-(((3R,4R)-3-aminotetrahydro-2H-pyran-4-yl)amino)-5-fluoro-2-((6-methoxy-5-(1H-1,2,3-triazol-1-yl)pyridin-3-yl)amino)nicotinamide]
13 | 10 to 50 | 130 to 200 | Cc1ccc(Nc2nc(N[C@@H]3CCOC[C@@H]3N)c(F)cc2C(N)=O)cn1 [Example 2-219, 6-(((3R,4R)-3-aminotetrahydro-2H-pyran-4-yl)amino)-5-fluoro-2-((6-methylpyridin-3-yl)amino)nicotinamide]
14 | 10 to 50 | 130 to 200 | Cc1ncc(Nc2nc(N[C@H](C3CC3)[C@H](C)N)c(F)cc2C(N)=O)cc1F [Example 2-220, 6-(((1R,2S)-2-amino-1-cyclopropylpropyl)amino)-5-fluoro-2-((5-fluoro-6-methylpyridin-3-yl)amino)nicotinamide]
15 | 10 to 50 | 130 to 200 | CC[C@@H](Nc1nc(Nc2cnc(C)c(F)c2)c(C(N)=O)cc1F)[C@H](C)N [Example 2-222, 6-(((2S,3R)-2-aminopentan-3-yl)amino)-5-fluoro-2-((5-fluoro-6-methylpyridin-3-yl)amino)nicotinamide]
16 | < 10 | 130 to 200 | CCC[C@@H](Nc1nc(Nc2cnc(C)c(F)c2)c(C(N)=O)cc1F)[C@H](C)N [Example 2-223, 6-(((2S,3R)-2-aminohexan-3-yl)amino)-5-fluoro-2-((5-fluoro-6-methylpyridin-3-yl)amino)nicotinamide]
17 | 10 to 50 | 130 to 200 | Cc1ncc(Nc2nc(N[C@@H]3CCOC[C@@H]3N)c(F)cc2C(N)=O)cc1F [Example 2-225, 6-(((3R,4R)-3-aminotetrahydro-2H-pyran-4-yl)amino)-5-fluoro-2-((5-fluoro-6-methylpyridin-3-yl)amino)nicotinamide]
18 | 10 to 50 | 130 to 200 | COc1cc(Nc2nc(N[C@H](C)[C@@H](N)C3CC3)c(F)cc2C(N)=O)cc(OC)c1 [Example 2-229, 6-(((1S,2R)-1-amino-1-cyclopropylpropan-2-yl)amino)-2-((3,5-dimethoxyphenyl)amino)-5-fluoronicotinamide]
19 | 10 to 50 | 65 to 130 | CCn1ncc2cc(Nc3nc(N[C@H](C)[C@@H](N)C4CC4)c(F)cc3C(N)=O)ccc21 [Example 2-230, 6-(((1S,2R)-1-amino-1-cyclopropylpropan-2-yl)amino)-2-((1-ethyl-1H-indazol-1-5-yl)amino)-5-fluoronicotinamide]
20 | 10 to 50 | 130 to 200 | C[C@H](N)[C@H](Nc1nc(Nc2ccnc(N3CCOCC3)c2F)c(C(N)=O)cc1F)C1CC1 [Example 2-233, 6-(((1R,2S)-2-amino-1-cyclopropylpropyl)amino)-5-fluoro-2-((3-fluoro-2-morpholinopyridin-4-yl)amino)nicotinamide]
21 | 10 to 50 | 130 to 200 | Cc1nn(C)c2ncc(Nc3nc(N[C@@H]4CCCC[C@@H]4N)c(F)cc3C(N)=O)cc12 [Example 2-239, 6-(((1R,2S)-2-aminocyclohexyl)amino)-2-((1,3-dimethyl-1H-pyrazolo[3,4-b]pyridin-5-yl)amino)-5-fluoronicotinamide]
22 | < 10 | 130 to 200 | Cc1nn(C)c2ncc(Nc3nc(N[C@@H](CN)CC(C)C)c(F)cc3C(N)=O)cc12 [Example 2-240, (R)-6-((1-amino-4-methylpentan-2-yl)amino)-2-((1,3-dimethyl-1H-pyrazolo[3,4-b]pyridin-5-yl)amino)-5-fluoronicotinamide]
